Assay results reported in patent publication US8476197B2, “Aminopropenoates as fungicides” (priority 2009, dated 2013).
Marks after values point to notes of the source that are not given here.

settings: pH 2.3

Row | Log P | Compound
1 | 3.84 | CCOC(=O)C(C#N)=C(NC1CCCCC1C)c1cccnc1Cl (centres unmarked) [Compound 1066]
2 | 3.59 | CCOC(=O)C(C#N)=C(NC[Si](C)(C)C)c1cccnc1Cl [Compound 1085]

Row | Compound | Log P
3 | CCOC(=O)C(C#N)=C(NC1CC2CCC1C2)c1cccnc1Cl (centres unmarked) [Compound 1080] | 3.59

same assay, conditions: pH 2.7

Row | Log P | Compound
4 | 2.99^[a] | C#CC1CCCCC1NC(=C(C#N)C(=O)OC)c1cccnc1Cl (centres unmarked) [Compound 1063]
5 | 3.44^[a] | CCOC(=O)C(C#N)=C(NC1CC1c1ccccc1)c1cccnc1Cl (centres unmarked) [Compound 1068]
6 | 3.09^[a] | COC(=O)C(C#N)=C(NC1CCCC(C(F)(F)F)C1)c1cccnc1Cl (centres unmarked) [Compound 1069]
7 | 3.73^[a] | COC(=O)C(C#N)=C(NC1CCC(C)C(C)C1)c1cccnc1Cl (centres unmarked) [Compound 1070]
8 | 3.42^[a] | COC(=O)C(C#N)=C(NC1CC(C(F)(F)F)CC(C(F)(F)F)C1)c1cccnc1Cl (centres unmarked) [Compound 1071]
9 | 3.37^[a] | COC(=O)C(C#N)=C(NC1CCCC(C)C1)c1cccnc1Cl (centres unmarked) [Compound 1074]
10 | 3.04^[a] | COC(=O)C(C#N)=C(NC1CCC(C(F)(F)F)CC1)c1cccnc1Cl (centres unmarked) [Compound 1075]
11 | 3.37^[a] | COC(=O)C(C#N)=C(NC1CCC(C)CC1)c1cccnc1Cl (centres unmarked) [Compound 1076]
12 | 4.51^[a] | COC(=O)C(C#N)=C(NC1CCC(C(C)(C)C)CC1)c1cccnc1Cl (centres unmarked) [Compound 1077]
13 | 3.06^[a] | COC(=O)C(C#N)=C(NC1CCc2ccccc21)c1cccnc1Cl (centres unmarked) [Compound 1078]
14 | 4.25^[a] | COC(=O)C(C#N)=C(NC1CCCC2CCCCC21)c1cccnc1Cl (centres unmarked) [Compound 1084]
15 | 2.43^[a] | CCOC(=O)C(C#N)=C(NC(C(=O)NC)c1ccccc1)c1cccnc1Cl (centres unmarked) [Compound 1087]
16 | 2.99^[a] | C#CC1(NC(=C(C#N)C(=O)OC)c2cccnc2Cl)CCCCC1 [Compound 1088]
17 | 4.16^[a] | CCOC(=O)C(C#N)=C(NC(C)(C)C#Cc1ccc(C#N)cc1)c1sccc1Br [Compound 1089]
18 | 3.37^[a] | CCOC(=O)C(C#N)=C(NC(C)(C)C#Cc1ccc(C#N)cc1)c1cn(C)nc1C(F)F [Compound 1090]
19 | 4.24^[a] | CCOC(=O)C(C#N)=C(NC(C)(C)C#Cc1ccc(C#N)cc1)c1sccc1C(F)(F)F [Compound 1091]
20 | 3.78^[a] | COC(=O)C(C#N)=C(NC(C)(C)C#Cc1ccc(C#N)cc1)c1sc(C)nc1C(F)(F)F [Compound 1092]
21 | 4.04^[a] | CCOC(=O)C(C#N)=C(NC(C)(C)C#Cc1ccc(C#N)cc1)c1sc(C)nc1C(F)(F)F [Compound 1093]

Row | Log P | Compound
22 | 4.21^[a] | CCOC(=O)C(C#N)=C(NC(C)(C)C#Cc1ccc(C#N)cc1)c1ccsc1Br [Compound 1094]
23 | 4.51^[a] | COC(=O)C(C#N)=C(NC(C)(C)C#Cc1ccc(C)cc1)c1sc(C)nc1C(F)(F)F [Compound 1095]
24 | 5.05^[a] | CCOC(=O)C(C#N)=C(NC(C)(C)C#Cc1ccc(C)cc1)c1sccc1Br [Compound 1096]
25 | 4.11^[a] | CCOC(=O)C(C#N)=C(NC(C)(C)C#Cc1ccc(C)cc1)c1cn(C)nc1C(F)F [Compound 1097]
26 | 4.92^[a] | CCOC(=O)C(C#N)=C(NC(C)(C)C#Cc1ccc(C)cc1)c1sc(C)nc1C(F)(F)F [Compound 1098]
27 | 3.55^[a] | CCOC(=O)C(C#N)=C(NC(C)(C)C#CCOC)c1sccc1C(F)(F)F [Compound 1099]
28 | 3.06^[a] | COCC#CC(C)(C)NC(=C(C#N)C(=O)OC)c1sc(C)nc1C(F)(F)F [Compound 1100]
29 | 3.42^[a] | CCOC(=O)C(C#N)=C(NC(C)(C)C#CCOC)c1sc(C)nc1C(F)(F)F [Compound 1102]
30 | 4.26^[a] | CCOC(=O)C(C#N)=C(NC(C)(C)C=C(Cl)Cl)c1sccc1C(F)(F)F [Compound 1103]
31 | 3.73^[a] | COC(=O)C(C#N)=C(NC(C)(C)C=C(Cl)Cl)c1sc(C)nc1C(F)(F)F [Compound 1104]
32 | 4.21^[a] | CCOC(=O)C(C#N)=C(NC(C)(C)C=C(Cl)Cl)c1sccc1Br [Compound 1105]
33 | 3.31^[a] | CCOC(=O)C(C#N)=C(NC(C)(C)C=C(Cl)Cl)c1cn(C)nc1C(F)F [Compound 1106]
34 | 3.96^[a] | CCOC(=O)C(C#N)=C(NC(C)CON=C(C)c1ccccc1)c1cccnc1Cl (centres unmarked) [Compound 1111]
35 | 3.83^[a] | CCOC(=O)C(C#N)=C(NC(C)CON=C(C)c1ccccc1)c1cn(C)nc1C(F)F (centres unmarked) [Compound 1112]
36 | 2.99^[a] | COC(=O)C(C#N)=C(NC1(C(F)(F)F)CCCCC1)c1cccnc1Cl [Compound 1113]
37 | 3.6^[a] | CCOC(=O)C(C#N)=C(NC1CCCCC1C)c1cn(C)nc1C(F)F (centres unmarked) [Compound 1122]
38 | 3.35^[a] | CCOC(=O)C(C#N)=C(NC[Si](C)(C)C)c1cn(C)nc1C(F)F [Compound 1126]
39 | 3.53^[a] | CCOC(=O)C(C#N)=C(NC(CC(C)C)C(=O)OCC)c1cn(C)nc1C(F)F (centres unmarked) [Compound 1129]

Row | Compound | Log P
40 | CCOC(=O)C(C#N)=C(NC1CC1CC)c1cccnc1Cl (centres unmarked) [Compound 1062] | 3.27^[a]
41 | CCOC(=O)C(C#N)=C(NC1CCC1C)c1cccnc1Cl (centres unmarked) [Compound 1065] | 3.37^[a]
42 | CCOC(=O)C(C#N)=C(NC1CC1C)c1cccnc1Cl (centres unmarked) [Compound 1067] | 2.86^[a]
43 | CCOC(=O)C(C#N)=C(NC1CC(C)C1)c1cccnc1Cl (centres unmarked) [Compound 1073] | 3.3^[a]
44 | CCOC(=O)C(C#N)=C(NC1CCc2ccccc21)c1cn(C)nc1C(F)F (centres unmarked) [Compound 1079] | 3.42^[a]
45 | CCOC(=O)C(C#N)=C(NC1CC2CCC1C2)c1cccnc1Cl (centres unmarked) [Compound 1081] | 3.7^[a]
46 | CCOC(=O)C(C#N)=C(NC1CC2CCC1C2)c1cccnc1Cl (centres unmarked) [Compound 1082] | 3.74^[a]
47 | CCOC(=O)C(C#N)=C(NC1C2CCCCC21)c1cccnc1Cl (centres unmarked) [Compound 1083] | 3.73^[a]
48 | CCOC(=O)C(C#N)=C(NC(C)(C)C#CCOC)c1cn(C)nc1C(F)F [Compound 1101] | 2.73^[a]
49 | CCOC(=O)C(C#N)=C(NC(C)C1=NOCCO1)c1cccnc1Cl (centres unmarked) [Compound 1117] | 2.11^[a]
50 | CCNC(=O)C(C#N)=C(NC(C)c1ccncn1)c1cccnc1Cl (centres unmarked) [Compound 1118] | 1.62^[a]
51 | CC#CC(C)NC(=C(C#N)C(=O)NCC)c1cccnc1Cl (centres unmarked) [Compound 1119] | 2.5^[a]
52 | CCNC(=O)C(C#N)=C(NCC(C)c1nccs1)c1cccnc1Cl (centres unmarked) [Compound 1120] | 2.14^[a]
53 | CCOC(=O)C(C#N)=C(NC1CCC1)c1cn(C)nc1C(F)F [Compound 1123] | 2.73^[a]
54 | CCOC(=O)C(C#N)=C(NC1CC1)c1cn(C)nc1C(F)F [Compound 1124] | 2.35^[a]
55 | CCCCC(C)NC(=C(C#N)C(=O)OCC)c1cn(C)nc1C(F)F (centres unmarked) [Compound 1125] | 3.58^[a]
56 | C=CCNC(=C(C#N)C(=O)OCC)c1cn(C)nc1C(F)F [Compound 1127] | 2.35^[a]
57 | C#CCNC(=C(C#N)C(=O)OCC)c1cn(C)nc1C(F)F [Compound 1128] | 2.13^[a]

same assay, conditions: pH 7.5

Row | Log P | Compound
58 | 3.7 | CCOC(=O)C(C#N)=C(NC1CCCCC1C)c1cccnc1Cl (centres unmarked) [Compound 1066]
59 | 3.46 | CCOC(=O)C(C#N)=C(NC[Si](C)(C)C)c1cccnc1Cl [Compound 1085]
60 | 2.35 | CCOC(=O)C(C#N)=C(NC(C)CSC#N)c1cccnc1Cl (centres unmarked) [Compound 1109]

Row | Compound | Log P
61 | CCOC(=O)C(C#N)=C(NC1CC2CCC1C2)c1cccnc1Cl (centres unmarked) [Compound 1080] | 3.57
62 | CCOC(=O)C(C#N)=C(NC(C)COS(C)(=O)=O)c1cccnc1Cl (centres unmarked) [Compound 1107] | 2.17
